In patent US9428732B2, “Compositions and methods for differentiating pluripotent stem cells into primitive blood cells and uses thereof” (Primorigen Biosciences, Inc., priority 2011, dated 2016):

Key:
Type in all cases: cell-based, human
[1] = tested on: Pluripotent stem cells (iPS and ES); test: Effects of DEAB on blood cell phenotypes, flow cytometry at Day 16; conditions: DEAB 10 uM vs DMSO
Method: (§1) Cells from the differentiation cultures were collected at time points indicated and washed in phosphate-buffered saline (PBS) supplemented with 2% FBS. Adherent cells were individualized using TrypLE (Life Technologies, Carlsbad Calif.), passed through a 27.5-gauge needle and filtered through a 40-70 μm cell strainer (BD Falcon, San Diego, Calif., www.bdbiosciences.com). Cells were treated with 7-aminoactinomycin D (7AAD) before analysis, and positive cells were gated out of results. Cells were stained with fluorescence-conjugated antibodies for the hematopoietic stem and progenitor cell markers CD45, CD43, CD34, CD38, CD90; CD45RA. Cells were analyzed on a FACS Canto (BD, Franklin Lakes, N.J., www.bd.com).
Cells were counted using the FACS cell counter feature (BD) or by cytometer using a bright-field microscope to obtain viable cell numbers. The total numbers of cells of each subpopulation were calculated by multiplying the number of cells by the proportion of cells of that lineage as determined by flow cytometry. Statistical analyses of data points and error bars of this study show mean and standard deviation, with statistical significance assessed by the Student's t-test.
From Example 1, DEAB was selected to move forward into an experiment further establishing the phenotypes of blood cells emerging from the differentiation in order to identify at what stage of differentiation DEAB may exert its effects. Pluripotent stem cells (iPS and ES) were grown and induced to produce embryoid bodies on Day 8 as described. The EBs were then exposed to Differentiation Medium 1 for a total of 8 days with partial medium changes made every other day as described. Cells were harvested on Day 16 and washed in phosphate-buffered saline (PBS) supplemented with 2% FBS. Adherent cells were individualized using TrypLE (Life Technologies, Carlsbad Calif.), passed through a 27.5-gauge needle and filtered through a 40-70 μm cell strainer (BD Falcon, San Diego, Calif., www.bdbiosciences.com). Cells were treated with 7-aminoactinomycin D before analysis and positive cells were gated out of results. Cells were stained with fluorescence conjugated antibodies for the hematopoietic stem and progenitor cell markers CD45, CD43, CD34, CD38, CD90, CD45RA. Cells were analyzed on an FACS Canto (BD, Franklin Lakes, N.J., www.bd.com).

ES and iPS cells = test: Small molecule screen, FACS of cells differentiated from pluripotent stem cells; conditions: relative to DMSO control, DEAB 10 μM, rapamycin 0.1 μM
Method: as §1
A small molecule screen was performed to identify compounds that improve the output of hematopoietic progenitor cells (HPCs; CD45+, CD43+, CD34+) and phenotypic hematopoietic stem cells (HSCs; CD45+, CD43+, CD34+, CD38−, CD90+, CD45RA−) differentiated from pluripotent stem cells. Molecules targeting pathways known or suspected of being important in hematopoiesis were screened. […] Cells were analyzed using fluorescence activated cell sorting (FACS; FIGS. 3A, 3B, and 3C) and CFU-GEMM assays (FIG. 3D). […]

[2] = tested on: pluripotent stem cell differentiation cultures; test: Quantitative gene expression analysis during differentiation (Day 0, 4, 8, 12, 15); conditions: for expression of SCL: FIG. 6M; for expression of FOXF1: FIG. 6E; for expression of FOXC1: FIG. 6F
Source text: RNA from the pluripotent stem cell differentiation cultures was harvested at multiple time points corresponding to stages of development from pluripotent stem cells to hematopoietic lineages during in vitro culture. Cells were lysed using Trizol (Life Technologies, Carlsbad Calif.), and RNA was isolated according to the manufacturer's specifications. A cDNA library was reverse transcribed by the High Capacity RNA-to-cDNA Kit from Applied Biosystems (Life Technologies, Carlsbad, Calif.). PCR products were amplified for 40 cycles using primers designed for the gene of interest.
Gene expression studies were carried out to determine expression of key genes for the major divergences in the pathway from iPS to HSC. Briefly, RNA from the differentiation cultures was harvested at multiple time points (Day 0, 4, 8, 12, 15), corresponding to stages of development during in vitro culture and differentiation of pluripotent stem cells to hematopoietic lineages using Differentiation Medium 1. Cells were lysed using Trizol (Life Technologies, Carlsbad Calif.) and RNA was isolated according to manufacturer's specifications. A cDNA library was reverse transcribed using the RNA-to-cDNA Kit from Applied Biosystems (Life Technologies, Carlscad, Calif.). PCR products were amplified using appropriate primers designed for the genes of interest for 40 cycles.
To understand how RA-signaling inhibition with DEAB may lead to increased output of the most primitive blood cells (phenotypic HSCs: CD45+, CD43+, CD34+, CD38−, CD90+, CD45RA−) from pluripotent stem cells without an increase in the total blood (mature cells and progenitors), we performed quantitative gene expression analyses for key development markers at various time points during the differentiation protocol. As the developmental marker genes we surveyed are not known to be direct targets of RA signaling, we can expect the marker gene expression levels to correlate to the cell numbers in culture.

[3] = DEAB vs DMSO, early time points

## CCN(CC)c1ccc(C=O)cc1 [DEAB, 4-diethylaminobenzaldehyde]
[1]; Day 16
  blood cells (CD45+, CD43+): modestly higher values
  hematopoietic progenitor cells (CD45+, CD43+, CD34+): modestly higher values
  population of cells exhibiting a hematopoietic stem cell phenotype (CD45+, CD43+, CD34+, CD38−, CD90+, CD45RA−): substantial improvement
  total viable cells: modestly higher values
[1]; FIGS. 4B and 4D
  increase in generation of the phenotypic stem cell phenotype: over 3 fold
ES and iPS cells; FIG. 3C
  output of total blood cells (CD45+, CD43+): increased
ES and iPS cells; FIGS. 3A and B
  output of HSCs (CD45+, CD43+, CD34+, CD38−, CD90+, CD45RA−): increased
[2]; DEAB compared to DMSO, Day 15
  expression of SCL: increased SCL expression
[2]; DEAB vs DMSO, Day 8-12
  expression of SCL: Increased SCL expression with DMSO compared to DEAB
[2]; DEAB vs DMSO, Day 8 onward
  expression of FOXF1: comparable
[2]; DEAB vs DMSO, Day 12-15, FIG. 6I
  expression of RUNX1 (definitive hematopoietic cell marker): increased expression
[2]; DEAB vs DMSO, Day 12 onward, FIG. 6G
  expression of cardiogenic lateral plate mesoderm marker NKX2.5: reduced expression
[2]; DEAB vs DMSO, Days 6-12
  expression of FOXC1: significantly reduced
[2]; DEAB vs DMSO, FIG. 6C
  increase in expression of primitive streak mesoderm marker MIXL1: 20%
[2]; DEAB vs DMSO, FIG. 6D
  expression of endoderm specific marker SOX17: significantly reduced
[2]; DEAB vs DMSO, FIG. 6L
  CD31 expression (primitive wave endothelial cells): reduced
[2]; DEAB vs DMSO, early time point, FIG. 6A
  expression of ectoderm and neuroectoderm marker PAX6: reduced expression
[2]; [3]
  expression of FOXF1: elevated levels
  expression of FOXC1: elevated levels
[2]; DEAB vs DMSO, first days of differentiation, FIG. 6B
  expression of mesoderm marker Brachyury: significantly increased
[2]; DEAB vs DMSO, later time points, FIG. 6A
  expression of PAX6: later equalized
[2]; DEAB, Day 4
  expression of FLK1: high levels
[2]; DEAB, Day 8, FIG. 6N
  expression of RARa: reduced levels
[2]; DEAB, Day 8, FIG. 6O
  expression of RARb: reduced levels
[2]; DEAB, Day 12, FIG. 6H
  expression of APLNR: expressed highly
[2]; DEAB, Day 12, FIG. 6J
  expression of PDGFRA: downregulated
[2]; DEAB, Days 12-15
  expression of FLK1: increased
[2]; DEAB, FIG. 6P
  expression of RA target CD38 by PCR: reduction
